Measured values from the supplement of paper PMC10307832.

What was measured:
Assay in all cases: relative viability (nuclei count vs DMSO), 5 days (fraction); higher = more cells survive
[1] = compound: C1COCCN1C2=NC(=NC3=C2OC4=C3C=CC=N4)C5=CC(=CC=C5)NC(=O)C6=CN=C(C=C6)N + Cc1nc(Nc2ncc(C(=O)Nc3c(C)cccc3Cl)s2)cc(N2CCN(CCO)CC2)n1 [Dasatinib] (partner 0.075 µM)
Procedure, shortened: (§1)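 After 5 days of treatment, lung cancer cells in 1536-well plates were fixed and stained in a single step (final 0.05% Triton X-100, 1% formaldehyde, 1 ug/ml Hoechst) and their nuclei counted on 4× images. Treatment had been applied by pin tool the day after seeding as one drug alone or as a fixed anchor-drug dose with five library-drug doses (not always all listed) in √10 steps. Relative viability is the nuclei count of treated wells divided by that of vehicle wells, and values are medians of duplicate plates.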

[2] = compound: C1COCCN1C2=NC(=NC3=C2OC4=C3C=CC=N4)C5=CC(=CC=C5)NC(=O)C6=CN=C(C=C6)N + NC(=O)Nc1cc(-c2cccc(F)c2)sc1C(=O)N[C@H]1CCCNC1 [AZD7762] (partner 0.2 µM)
Procedure, shortened: as §1

[3] = compound: CN1CCC(CNc2ccc3ncc(-c4cccc(OC(F)(F)F)c4)n3n2)CC1 [SGI-1776] + NC(=O)Nc1cc(-c2cccc(F)c2)sc1C(=O)N[C@H]1CCCNC1 [AZD7762] (partner 0.2 µM)
Procedure, shortened: as §1

[4] = compound: Nc1ccccc1NC(=O)c1ccc(CNC(=O)OCc2cccnc2)cc1 [Entinostat] + O=C(c1cc(Cc2n[nH]c(=O)c3ccccc23)ccc1F)N1CCN(C(=O)C2CC2)CC1 [Olaparib] (partner 8 µM)
Procedure, shortened: as §1

Row | Cell Line | relative viability ([1]; first compound 0.02 µM) | relative viability ([1]; first compound 0.06325 µM) | relative viability ([1]; first compound 0.2 µM) | relative viability ([1]; first compound 0.6325 µM) | relative viability ([1]; first compound 2 µM) | relative viability ([2]; first compound 0.02 µM) | relative viability ([2]; first compound 0.06325 µM) | relative viability ([2]; first compound 0.2 µM) | relative viability ([2]; first compound 0.6325 µM) | relative viability ([2]; first compound 2 µM) | relative viability ([3]; first compound 0.08 µM) | relative viability ([3]; first compound 0.8 µM) | relative viability ([3]; first compound 2.53 µM) | relative viability ([3]; first compound 8 µM) | relative viability ([4]; first compound 0.02 µM) | relative viability ([4]; first compound 0.06325 µM) | relative viability ([4]; first compound 0.2 µM) | relative viability ([4]; first compound 0.6325 µM) | relative viability ([4]; first compound 2 µM)
1 | EKVX | 0.593 | 0.584 | 0.513 | 0.463 | 0.571 | 0.9 | 0.869 | 0.747 | 0.709 | 0.578 | 0.699 | 0.713 | 0.638 | 0.646 | 0.766 | 0.829 | 0.825 | 0.73 | 0.386
2 | NCI-H2342 | 0.296 | 0.306 | 0.283 | 0.327 | 0.301 | 0.498 | 0.525 | 0.476 | 0.565 | 0.463 | 0.57 | 0.625 | 0.442 | 0.517 | 0.401 | 0.477 | 0.447 | 0.356 | 0.308
3 | LOU-NH91 | 0.537 | 0.546 | 0.587 | 0.56 | 0.357 | 0.733 | 0.793 | 0.734 | 0.748 | 0.59 | 0.797 | 0.793 | 0.7 | 0.593 | 0.863 | 0.904 | 0.919 | 0.806 | 0.676
4 | NCI-H1437 | 0.33 | 0.431 | 0.272 | 0.385 | 0.264 | 1.1 | 1.07 | 1.12 | 1.13 | 0.91 | 1.11 | 1.13 | 1.07 | 1.02 | 0.491 | 0.378 | 0.309 | 0.228 | 0.196
5 | EPLC-272H | 0.295 | 0.359 | 0.267 | 0.309 | 0.219 | 0.217 |  | 0.251 | 0.23 | 0.19 | 0.188 | 0.224 | 0.364 | 0.252 | 0.726 | 0.614 | 0.875 | 0.273 | 0.191
6 | ChaGo-K-1 | 0.555 | 0.625 | 0.605 | 0.508 | 0.522 | 0.892 | 0.93 | 0.84 | 0.886 | 0.635 | 0.892 | 0.875 | 0.912 | 0.859 | 0.426 | 0.425 | 0.497 | 0.358 | 0.331
7 | NCI-H1666 | 0.865 | 0.761 | 0.658 | 0.632 | 0.517 | 0.91 | 0.827 | 0.861 | 0.757 | 0.811 | 0.945 | 0.873 | 0.862 | 0.834 | 0.81 | 0.759 | 0.723 | 0.669 | 0.539
8 | RERF-LC-KJ | 0.944 | 1 | 0.79 | 0.713 | 0.559 | 0.882 | 1.18 | 0.997 | 0.945 | 0.794 | 0.912 | 1.08 | 0.831 | 0.828 | 0.901 | 0.903 | 0.795 | 0.373 | 0.282
9 | LU99A | 0.538 | 0.533 | 0.37 | 0.347 | 0.182 | 0.433 | 0.416 | 0.233 | 0.319 | 0.295 | 0.38 | 0.384 | 0.339 | 0.294 | 0.236 | 0.264 | 0.274 | 0.198 | 0.164
10 | PC-3 [JPC-3] | 1.18 | 1.08 | 1.02 | 0.818 | 0.629 | 0.904 | 0.752 |  | 0.784 | 0.625 | 0.921 | 0.872 | 0.685 | 0.609 | 1.14 | 1.12 | 1.04 | 0.663 | 0.456
11 | NCI-H2126 | 0.691 | 0.587 | 0.528 | 0.507 | 0.551 | 0.989 | 1.03 | 1.03 | 0.989 | 0.736 | 1 | 0.98 | 1.02 | 0.959 | 0.953 | 0.925 | 0.886 | 0.742 | 0.539
12 | LXF-289 | 0.228 | 0.249 | 0.219 | 0.17 | 0.175 | 1.08 | 1.3 | 1.08 | 1.09 | 0.67 | 1.06 | 1.13 | 1.16 | 1.09 | 1.07 | 0.978 | 0.875 | 0.714 | 0.523
13 | BEN | 0.309 | 0.297 | 0.334 | 0.371 | 0.325 | 0.726 | 0.636 | 0.66 | 0.621 | 0.657 | 0.829 | 0.735 | 0.673 | 0.524 | 1.22 | 1.15 | 1.09 | 0.64 | 0.371
14 | NCI-H1993 | 0.553 | 0.552 | 0.594 | 0.572 | 0.492 | 1.02 | 0.668 | 0.747 | 0.759 | 0.443 | 0.839 | 0.941 | 0.889 | 0.482 | 1.25 | 1.11 | 1.01 | 0.892 | 0.375
15 | NCI-H522 | 0.936 | 0.983 | 0.899 | 0.877 | 0.837 | 0.708 | 0.867 | 0.773 | 0.834 | 0.684 | 0.819 | 0.747 | 0.789 | 0.613 | 0.58 | 0.713 | 0.582 | 0.686 | 0.494
16 | NCI-H460 | 0.521 | 0.361 | 0.417 | 0.414 | 0.185 | 0.609 | 0.784 | 0.587 | 0.653 | 0.359 | 0.717 | 0.669 | 0.572 | 0.707 | 0.37 | 0.328 | 0.137 | 0.0676 | 0.0406
17 | LCLC-97TM1 | 0.865 | 0.939 | 0.762 | 0.914 | 0.675 | 0.19 | 0.236 | 0.231 | 0.258 | 0.256 | 0.302 | 0.313 | 0.204 | 0.304 | 0.476 | 0.402 | 0.41 | 0.32 | 0.364
